Source: patent US6727287B2, “Toluene sulfonamide-containing anti-tumor composition and method of use thereof” (PTS International, Inc., priority 2001, dated 2004)

Tested on: normal (i.e., non-neoplastic) cells
Assay: Exposure of normal (non-neoplastic) cells to para-toluene sulfonamide
Conditions: normal (non-neoplastic) cells exposed to the compound

Cc1ccc(S(N)(=O)=O)cc1 [para-toluene sulfonamide]
histopathological changes in normal cells: almost no histopathological changes
